For the experiment, the target named is T1, EphA2 LBD (Homo sapiens, UniProt P29317).
T1 construct: fused on or other part: Minimal biotinylation for capture on Neutravidin (doxazosin run); amine coupling for the other compounds
Kind of experiment: Surface Plasmon Resonance binding analysis. To be noted: SPR, recombinant LBD of EphA2; read-out: dissociation constant (KD). The procedure: Binding analysis was carried out using standard biosensor chips and the […] Dual Channel SPR System (Reichert Life Sciences, Depew, N.Y.). The extracellular domain (ECD) of EphA2 was coupled to the chip by standard amine coupling using 1-ethyl-3-(3-dimethylaminopropyl) carbodiimide (EDC) and N-hydroxysuccinimide (NHS), followed by ethanolamine wash. In the case of doxazosin, Neutravidin was coupled to the chip, followed by ethanolamine wash and addition of minimally biotinylated EphA2 ECD to properly orient the protein. Different concentrations of dobutamine, labetalol, and doxazosin in running buffer (PBS, 0.05% Tween-20, 1% DMSO) were flown over the chip at a rate of […] and binding analyzed in real-time. After approximately 60 seconds, running buffer was flown over the chip to dissociate the compounds from the coupled protein (downward slope of curve). Binding data were analyzed and KD values determined using Clamp software (BioLogic Software Pty Ltd).

From patent US11814372B2, “Agonists of EPHA and their uses” (CASE WESTERN RESERVE UNIVERSITY, priority 2017, dated 2023) come the findings set out here.

T1 sequence (P29317 28-206 limits assumed): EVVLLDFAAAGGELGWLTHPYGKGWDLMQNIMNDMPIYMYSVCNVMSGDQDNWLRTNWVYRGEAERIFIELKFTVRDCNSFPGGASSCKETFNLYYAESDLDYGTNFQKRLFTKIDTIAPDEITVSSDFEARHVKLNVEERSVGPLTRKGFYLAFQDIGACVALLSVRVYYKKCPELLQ

`CC(CCc1ccc(O)cc1)NCCc1ccc(O)c(O)c1` (centres unmarked) [dobutamine]: the Kd (commonly a measure of binding affinity in units of concentration) was 1500 µM.
On to `CC(CCc1ccccc1)NCC(O)c1ccc(O)c(C(N)=O)c1` (centres unmarked) [labetalol], for which the Kd came to 440 µM.
